From article PMC7914897, “Cytotoxic Potential of a-Azepano- and 3-Amino-3,4-SeCo-Triterpenoids” (International Journal of Molecular Sciences, 2021)

Columns and labels:
[1] = tested on: NCI/ADR-RES (Ovarian cancer); experiment: NCI-60 screen (SRB, 48 h); conditions: Homo sapiens
Renal Cancer subpanel = experiment: NCI-60 screen, subpanel; conditions: Homo sapiens
HOP-62 (NSC lung cancer) = experiment: NCI-60 screen (SRB, 48 h); conditions: Homo sapiens
UACC-62 (Melanoma) = experiment: NCI-60 screen (SRB, 48 h); conditions: Homo sapiens
SF-295 (CNS cancer) = experiment: NCI-60 screen (SRB, 48 h); conditions: Homo sapiens
MALME-3M (Melanoma) = experiment: NCI-60 screen (SRB, 48 h); conditions: Homo sapiens
MCF7 (Breast cancer) = experiment: NCI-60 screen (SRB, 48 h); conditions: Homo sapiens
K-562 (Leukemia) = experiment: NCI-60 screen (SRB, 48 h); conditions: Homo sapiens
OVCAR-8 (Ovarian cancer) = experiment: NCI-60 screen (SRB, 48 h); conditions: Homo sapiens
SN12C (Renal cancer) = experiment: NCI-60 screen (SRB, 48 h); conditions: Homo sapiens
SK-MEL-2 (Melanoma) = experiment: NCI-60 screen (SRB, 48 h); conditions: Homo sapiens
HS 578T (Breast cancer) = experiment: NCI-60 screen (SRB, 48 h); conditions: Homo sapiens
UO-31 (Renal cancer) = experiment: NCI-60 screen (SRB, 48 h); conditions: Homo sapiens
Prostate cancer subpanel = experiment: NCI-60 screen, subpanel; conditions: Homo sapiens
DU-145 (Prostate cancer) = experiment: NCI-60 screen (SRB, 48 h); conditions: Homo sapiens
T-47D (Breast cancer) = experiment: NCI-60 screen (SRB, 48 h); conditions: Homo sapiens, T47D
SNB-19 (CNS cancer) = experiment: NCI-60 screen (SRB, 48 h); conditions: Homo sapiens
[2] = tested on: NCI-H23 (NSC lung cancer); experiment: NCI-60 screen (SRB, 48 h); conditions: Homo sapiens
M14 (Melanoma) = experiment: NCI-60 screen (SRB, 48 h); conditions: Homo sapiens
SW-620 (Colon cancer) = experiment: NCI-60 screen (SRB, 48 h); conditions: Homo sapiens
HCT-15 (Colon cancer) = experiment: NCI-60 screen (SRB, 48 h); conditions: Homo sapiens
EKVX (NSC lung cancer) = experiment: NCI-60 screen (SRB, 48 h); conditions: Homo sapiens
SK-MEL-28 (Melanoma) = experiment: NCI-60 screen (SRB, 48 h); conditions: Homo sapiens
Ovarian Cancer subpanel = experiment: NCI-60 screen, subpanel; conditions: Homo sapiens
[3] = tested on: A549/ATCC (NSC lung cancer); experiment: NCI-60 screen (SRB, 48 h); conditions: Homo sapiens
ACHN (Renal cancer) = experiment: NCI-60 screen (SRB, 48 h); conditions: Homo sapiens
HOP-92 (NSC lung cancer) = experiment: NCI-60 screen (SRB, 48 h); conditions: Homo sapiens
COLO 205 (Colon cancer) = experiment: NCI-60 screen (SRB, 48 h); conditions: Homo sapiens

Cc1ccc(S(=O)(=O)OC[C@@]2(C)CC[C@]3(C)CC[C@]4(C)C(=C3C2)C=C[C@@H]2[C@@]3(C)CCCNC(C)(C)[C@@H]3CC[C@]24C)cc1 [Compound 16]
GI50 [1]: 2.05 µM | IC (TGI) ([1]; 48 h, read-out: TGI): 4.59 µM | CC50 ([1]; read-out: LC50): > 100 µM | IC (TGI) (Renal Cancer subpanel; 48 h, read-out: TGI MG_MID): 3.19 µM | GI50 (Renal Cancer subpanel; read-out: GI50 MG_MID): 1.67 µM | CC50 (Renal Cancer subpanel; read-out: LC50 MG_MID): 5.92 µM | GI50 (HOP-62 (NSC lung cancer); HOP-62): 1.84 µM | IC (TGI) (HOP-62 (NSC lung cancer); HOP-62, 48 h, read-out: TGI): 3.59 µM | GI50 (UACC-62 (Melanoma); UACC-62): 1.84 µM | IC (TGI) (UACC-62 (Melanoma); UACC-62, 48 h, read-out: TGI): 3.39 µM | GI50 (SF-295 (CNS cancer); SF-295): 1.78 µM | IC (TGI) (SF-295 (CNS cancer); SF-295, 48 h, read-out: TGI): 3.29 µM | CC50 (SF-295 (CNS cancer); SF-295, read-out: LC50): 6.08 µM | GI50 (MALME-3M (Melanoma)): 1.68 µM | IC (TGI) (MALME-3M (Melanoma); 48 h, read-out: TGI): 3.26 µM | CC50 (MALME-3M (Melanoma); read-out: LC50): 6.34 µM | GI50 (MCF7 (Breast cancer); MCF7): 1.51 µM | IC (TGI) (MCF7 (Breast cancer); MCF7, 48 h, read-out: TGI): 3.18 µM | GI50 (K-562 (Leukemia); K562): 1.28 µM | CC50 (K-562 (Leukemia); K562, read-out: LC50): > 100 µM | GI50 (OVCAR-8 (Ovarian cancer); OVCAR-8): 2.12 µM | IC (TGI) (OVCAR-8 (Ovarian cancer); OVCAR-8, 48 h, read-out: TGI): 4.57 µM | GI50 (SN12C (Renal cancer)): 1.79 µM | IC (TGI) (SN12C (Renal cancer); 48 h, read-out: TGI): 3.41 µM | GI50 (SK-MEL-2 (Melanoma); SK-MEL-2): 1.88 µM | IC (TGI) (SK-MEL-2 (Melanoma); SK-MEL-2, 48 h, read-out: TGI): 3.52 µM | CC50 (SK-MEL-2 (Melanoma); SK-MEL-2, read-out: LC50): 6.58 µM | GI50 (HS 578T (Breast cancer)): 1.94 µM | IC (TGI) (HS 578T (Breast cancer); 48 h, read-out: TGI): 4.26 µM | CC50 (HS 578T (Breast cancer); read-out: LC50): 9.37 µM | GI50 (UO-31 (Renal cancer); UO-31): 1.46 µM | IC (TGI) (UO-31 (Renal cancer); UO-31, 48 h, read-out: TGI): 2.85 µM | CC50 (UO-31 (Renal cancer); UO-31, read-out: LC50): 5.59 µM | IC (TGI) (Prostate cancer subpanel; 48 h, read-out: TGI MG_MID): 3.19 µM | GI50 (Prostate cancer subpanel; read-out: GI50 MG_MID): 1.67 µM | CC50 (Prostate cancer subpanel; read-out: LC50 MG_MID): 6.1 µM | GI50 (DU-145 (Prostate cancer); DU-145): 1.81 µM | IC (TGI) (DU-145 (Prostate cancer); DU-145, 48 h, read-out: TGI): 3.4 µM | CC50 (DU-145 (Prostate cancer); DU-145, read-out: LC50): 6.39 µM | GI50 (T-47D (Breast cancer)): 1.55 µM | IC (TGI) (T-47D (Breast cancer); 48 h, read-out: TGI): 3.26 µM | CC50 (T-47D (Breast cancer); read-out: LC50): 6.85 µM | GI50 (SNB-19 (CNS cancer); SNB-19): 1.91 µM | IC (TGI) (SNB-19 (CNS cancer); SNB-19, 48 h, read-out: TGI): 3.62 µM | GI50 ([2]; NCI-H23): 1.82 µM | IC (TGI) ([2]; NCI-H23, 48 h, read-out: TGI): 3.42 µM | CC50 ([2]; NCI-H23, read-out: LC50): 6.41 µM | GI50 (M14 (Melanoma); M14): 1.8 µM | IC (TGI) (M14 (Melanoma); M14, 48 h, read-out: TGI): 3.62 µM | GI50 (SW-620 (Colon cancer); SW-620): 1.78 µM | IC (TGI) (SW-620 (Colon cancer); SW-620, 48 h, read-out: TGI): 3.54 µM | CC50 (SW-620 (Colon cancer); SW-620, read-out: LC50): 7.04 µM | GI50 (HCT-15 (Colon cancer); HCT-15): 1.61 µM | IC (TGI) (HCT-15 (Colon cancer); HCT-15, 48 h, read-out: TGI): 3.17 µM | GI50 (EKVX (NSC lung cancer)): 1.7 µM | IC (TGI) (EKVX (NSC lung cancer); 48 h, read-out: TGI): 3.29 µM | CC50 (EKVX (NSC lung cancer); read-out: LC50): 6.35 µM | GI50 (SK-MEL-28 (Melanoma); SK-MEL-28): 1.77 µM | IC (TGI) (SK-MEL-28 (Melanoma); SK-MEL-28, 48 h, read-out: TGI): 3.26 µM | CC50 (SK-MEL-28 (Melanoma); SK-MEL-28, read-out: LC50): 5.97 µM | IC (TGI) (Ovarian Cancer subpanel; 48 h, read-out: TGI MG_MID): 3.68 µM | GI50 (Ovarian Cancer subpanel; read-out: GI50 MG_MID): 1.86 µM | CC50 (Ovarian Cancer subpanel; read-out: LC50 MG_MID): 29.4 µM | GI50 ([3]; A549): 1.86 µM | IC (TGI) ([3]; A549, 48 h, read-out: TGI): 3.62 µM | GI50 (ACHN (Renal cancer)): 1.72 µM | IC (TGI) (ACHN (Renal cancer); 48 h, read-out: TGI): 3.1 µM | CC50 (ACHN (Renal cancer); read-out: LC50): 5.5 µM | GI50 (HOP-92 (NSC lung cancer); HOP-92): 1.45 µM | IC (TGI) (HOP-92 (NSC lung cancer); HOP-92, 48 h, read-out: TGI): 2.97 µM | CC50 (HOP-92 (NSC lung cancer); HOP-92, read-out: LC50): 6.11 µM | GI50 (COLO 205 (Colon cancer); COLO 205): 1.62 µM | IC (TGI) (COLO 205 (Colon cancer); COLO 205, 48 h, read-out: TGI): 3.26 µM
